The source made the active and inactive calls.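 How the source made its calls: active means compounds blocking the PEG3 reporter with IC50 up to 10 µM at either incubation, yet sparing the GAPDH control reporter; inactive means the rest.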
Test: GAPDH and PEG-3 promoter luciferase suppression – cell-based, luminescence, set 2, counter-screen for PEG-3 promoter inhibitor project, dose response (AID 651549)
Settings: HeLa PEG-Prom-luciferase or GAPDH-reporter, 6/24 h

| IC50 (GAPDH, run 1, 6 h) | IC50 (GAPDH, run 1, 24 h) | IC50 (PEG-3, run 1, 6 h) | IC50 (PEG-3, run 1, 24 h) | SMILES |
| --- | --- | --- | --- | --- |
| inactive | > 99 µM (inactive) | inactive | > 99 µM (inactive) | Cc1ccc(-c2cn3nc(C)c(C)nc3n2)cc1 |
| inactive | inactive | inactive | inactive | COC1CC(C)C(OC)c2cc(O)cc(c2O)NC(=O)C(C)=CC=CC(C)C(OC(N)=O)C(C)=CC(C)C1OC (centres undefined) |
| inactive | 8.62 µM | > 99 µM (inactive) | inactive | CC(=O)c1cccc(-c2ccnc3c2CC(C(=O)Nc2cccc(NS(C)(=O)=O)c2)O3)c1 (centres undefined) |
| inactive | 2.54 µM | inactive | 2.18 µM | Cc1ccc(C)c(S(=O)(=O)N2CCN(c3ncnc4sccc34)CC2)c1 |
| inactive | inactive | > 99 µM (inactive) | > 99 µM (inactive) | CCCn1nc(C(=O)Nc2nc(-c3ccccn3)cs2)c2ccccc2c1=O |
| inactive | 2.7 µM | > 99 µM (inactive) | 2.63 µM | CCn1cc(C(=O)NCc2ccco2)c(=O)c2cc(S(=O)(=O)N3CC(C)CC(C)C3)ccc21 (centres undefined) |
| inactive | inactive | inactive | 9.86 µM | CC(CCc1ccccc1)NC(=O)COC(=O)c1ccc(S(C)(=O)=O)c([N+](=O)[O-])c1 (centres undefined) |
| 2.23 µM | inactive | 2.12 µM | 5.02 µM | CCc1ccn2cc(-c3ccc4c(c3)OCO4)nc2c1 |
| 6 µM | 6.64 µM | 3.47 µM | inactive | CC(C)(C)c1ccc(Cn2c(=O)cnc3ccccc32)cc1 |
| inactive | inactive | inactive | 7.33 µM | NC(=O)c1cc([N+](=O)[O-])ccc1NCc1ccc(N)cc1 |

Second part, the compound before the results:

| SMILES | IC50 (GAPDH, run 1, 6 h) | IC50 (GAPDH, run 1, 24 h) | IC50 (PEG-3, run 1, 6 h) | IC50 (PEG-3, run 1, 24 h) |
| --- | --- | --- | --- | --- |
| CCOC(=O)c1ccc2nc(Nc3nc4ccc(F)cc4s3)sc2c1 | > 99 µM (inactive) | > 99 µM (inactive) | 0.31 µM | < 1 µM |
| Cc1cccc(NC(=O)c2nc(S(=O)(=O)Cc3ccccc3)ncc2Cl)c1 | 8.24 µM | 7.13 µM | inactive | inactive |
| COc1cc2nc(CN3CC=C(c4ccccc4)CC3)[nH]c(=O)c2cc1OC | inactive | inactive | inactive | inactive |
| Cc1cccc(-n2cc(-c3ccccc3)c3c(N4CCOCC4)ncnc32)c1 | > 99 µM (inactive) | inactive | > 99 µM (inactive) | inactive |
| CC1CCN(c2nc3ccc(C(=O)O)cc3s2)CC1 | 1.93 µM | 2.14 µM | 1.01 µM | 1.51 µM |
| Cc1c(/C(O)=C2/C(=O)C(=O)N(Cc3cccnc3)C2c2ccccn2)cnn1-c1ccccc1 (centres undefined) | 1.01 µM | 1.92 µM | 1.58 µM | 5.27 µM |
| CCCCCCCn1c(=N)n(CC(=O)c2ccco2)c2ccccc21 | inactive | inactive | inactive | inactive |
| COc1ccc(CC2C(=O)NC(C)C(=O)N(C)C3C(=O)N(C)C(Cc4ccc(O)c(c4)Oc4ccc(cc4)C3O)C(=O)NC(C)C(=O)NC(C)C(=O)N2C)cc1 (centres undefined) | < 1 µM | < 1 µM | < 1 µM | < 1 µM |
| CS(=O)(=O)c1ccc(-c2sc3ccccc3c2C#CCCO)cc1 | inactive | inactive | inactive | inactive |
| CN1OC[C@@H]2CN(S(=O)(=O)c3cccc(C(F)(F)F)c3)[C@H](c3ccc(-c4cc5ccccc5o4)cc3)C[C@@H]21 | inactive | 6.66 µM | inactive | inactive |
| O=C(Nc1cccc(-c2ccc(N3CCCCC3)nn2)c1)C(F)(F)F | 3.5 µM | inactive | 5.36 µM | 8.67 µM |

Source: PubChem BioAssay AID651549 (Sanford-Burnham Center for Chemical Genomics, 2012)
